Measurements reported in DBAASP.
≈ marks a conversion by molar mass, not a printed value.

Tests used:
Assay in all cases: ≥ marks a high value that may be exact or a test limit, other limits are often not marked, values filed in µg/mL are converted to µM
[1] = test system: Staphylococcus aureus NCTC 12493
[2] = test system: Klebsiella pneumoniae ATCC 43816
[3] = test system: Escherichia coli NCTC 10418
[4] = test system: Staphylococcus aureus NCTC 10788
[5] = test system: Pseudomonas aeruginosa ATCC 27853
[6] = test system: Candida albicans NCTC 1467
[7] = test system: Psychrobacter sp. TAD 1
[8] = test system: Bacillus pumilus
[9] = test system: Escherichia coli
[10] = test system: Candida boidinii
[11] = test system: Klebsiella pneumoniae ATCC 13866
[12] = test system: Staphylococcus aureus ATCC 25923
[13] = test system: Staphylococcus aureus ATCC 33591
[14] = test system: Staphylococcus aureus ATCC 29213
[15] = test system: Escherichia coli ATCC 35218
[16] = test system: Escherichia coli ATCC 11229
[17] = test system: Pseudomonas syringae pv. tomato NCPPB 1106
[18] = test system: Bacillus thuringiensis serovar tenebrionis DSM 2803
[19] = test system: Serratia marcescens ATCC 17991
[20] = test system: Bacillus megaterium QMB 1551
[21] = test system: Salmonella enterica subsp. enterica serovar Newport
[22] = test system: Bacillus subtilis NRRL B-237
[23] = test system: Paenibacillus alvei LMG 6922
[24] = test system: Escherichia coli NCTC 9001
[25] = test system: Shigella flexneri CP87
[26] = test system: Sinorhizobium meliloti ZB314
[27] = test system: Clavibacter michiganensis subsp. insidiosus NCPPB 1109
[28] = test system: Agrobacterium tumefaciens DSM 3129
[29] = test system: Brenneria salicis NCPPB 2530
[30] = test system: Salmonella typhimurium ATCC 23565
[31] = test system: Staphylococcus aureus HNCMO 112011
[32] = test system: Acinetobacter baumannii ATCC 17978
[33] = test system: Escherichia coli ATCC 8739
[34] = test system: Escherichia coli DSM 1116
[35] = test system: Bacillus subtilis DSM 347
[36] = test system: Franconibacter helveticus DSM 18390
[37] = test system: Staphylococcus xylosus DSM 20267
[38] = test system: Aspergillus oryzae NBRC 100959
[39] = test system: Micrococcus luteus NBRC 3333
[40] = test system: Candida viswanathii NBRC 10321
[41] = test system: Staphylococcus epidermidis NBRC 12993
[42] = test system: Escherichia coli NBRC 3972

CC[C@H](C)[C@@H]1NC(=O)[C@H](CC(C)C)NC(=O)[C@@H](NC(=O)[C@H](Cc2ccccc2)NC(=O)[C@H](CC(C)C)NC(=O)[C@H](CCCCN)NC(=O)[C@@H]2CCCN2C(=O)[C@H](CC(C)C)NC(=O)[C@@H](NC(=O)[C@H](CCCCN)NC(=O)[C@@H](NC(=O)[C@@H](NC(=O)[C@H](C)NC(=O)CNC(=O)[C@H](CC(C)C)NC(=O)[C@H](C)NC(=O)[C@@H](N)Cc2ccccc2)C(C)C)[C@@H](C)O)C(C)C)CSSC[C@@H](C(=O)O)NC(=O)[C@H](CCCCN)NC(=O)[C@H](CCCN=C(N)N)NC(=O)[C@H]([C@@H](C)O)NC1=O [FALGAVTKVLPKLFCLITRKC]
MIC [1]: 8 µM (≈ 18.6 µg/mL) | MIC [2]: ≥ 64 µM | MIC [3]: 16 µM (≈ 37.1 µg/mL) | MIC [4]: 4 µM (≈ 9.28 µg/mL) | MIC [5]: 64 µM (≈ 148 µg/mL) | MIC [6]: 16 µM (≈ 37.1 µg/mL)

CC[C@H](C)[C@H](NC(=O)CNC(=O)[C@H](CCCN=C(N)N)NC(=O)[C@H](CC(C)C)NC(=O)[C@H](CC(C)C)NC(=O)[C@H](Cc1cnc[nH]1)NC(=O)CNC(=O)[C@H](Cc1ccccc1)NC(=O)[C@@H](N)Cc1ccccc1)C(=O)N[C@H](C(=O)N[C@@H](CO)C(=O)N[C@H](C(=O)NCC(=O)N[C@@H](CCCCN)C(=O)N[C@@H](Cc1cnc[nH]1)C(=O)N[C@H](C(=O)N[C@@H](Cc1cnc[nH]1)C(=O)NCC(=O)N[C@@H](CC(C)C)C(=O)N[C@H](C(=O)N[C@H](C(=O)NCC(=O)O)[C@@H](C)O)[C@@H](C)CC)[C@@H](C)CC)C(C)C)C(C)C [FFGHLLRGIVSVGKHIHGLITG]
MIC [7]: 2.5 µM (≈ 5.9 µg/mL) | MIC [8]: 10 µM (≈ 23.6 µg/mL) | MIC [9]: 25 µM (≈ 59 µg/mL) | MIC [10]: ≥ 50 µM

CSCC[C@H](NC(=O)[C@H](CC(C)C)NC(=O)CN)C(=O)N[C@@H](CCCCN)C(=O)N[C@@H](CC(C)C)C(=O)N[C@@H](CC(C)C)C(=O)N[C@@H](CCCN=C(N)N)C(=O)N[C@@H](CCC(=O)O)C(=O)N[C@@H](CC(C)C)C(=O)N[C@@H](CC(C)C)C(=O)N[C@@H](Cc1cnc[nH]1)C(=O)N[C@@H](CCSC)C(=O)N[C@@H](Cc1ccccc1)C(=O)N[C@@H](CO)C(=O)N[C@@H](CCCN=C(N)N)C(=O)N[C@H](C(=O)NCC(=O)O)C(C)C [GLMKLLRELLHMFSRVG]
MIC [11]: 32 µM (≈ 64 µg/mL) | MIC [12]: 32 µM (≈ 64 µg/mL) | MIC [13]: 16 µM (≈ 32 µg/mL) | MIC [14]: 32 µM (≈ 64 µg/mL) | MIC [15]: ≥ 64 µM | MIC [16]: ≥ 64 µM | MIC [5]: 8 µM (≈ 16 µg/mL)

CC[C@H](C)[C@H](NC(=O)[C@H](Cc1ccc(O)cc1)NC(=O)[C@@H](NC(=O)[C@@H]1CCCN1C(=O)[C@H](CCCN=C(N)N)NC(=O)[C@H](CC(N)=O)NC(=O)[C@H](CC(N)=O)NC(=O)CN)C(C)C)C(=O)N1CCC[C@H]1C(=O)N[C@@H](CCC(N)=O)C(=O)N1CCC[C@H]1C(=O)N[C@@H](CCCN=C(N)N)C(=O)N1CCC[C@H]1C(=O)N1CCC[C@H]1C(=O)N[C@@H](Cc1cnc[nH]1)C(=O)N1CCC[C@H]1C(=O)N[C@@H](CCCN=C(N)N)C(=O)O [GNNRPVYIPQPRPPHPR]
MIC [17]: 0.1 µM (≈ 0.2 µg/mL) | MIC [18]: ≥ 100 µM | MIC [19]: ≥ 100 µM | MIC [20]: ≥ 75.2 µM | MIC [21]: 0.1 µM (≈ 0.2 µg/mL) | MIC [22]: ≥ 100 µM | MIC [23]: ≥ 100 µM | MIC [24]: 0.0501 µM (≈ 0.1 µg/mL) | MIC [25]: 0.0501 µM (≈ 0.1 µg/mL) | MIC [26]: 0.0501 µM (≈ 0.1 µg/mL) | MIC [27]: 25.1 µM (≈ 50 µg/mL) | MIC [28]: 0.1 µM (≈ 0.2 µg/mL) | MIC [29]: 0.01 µM (≈ 0.02 µg/mL) | MIC [30]: 0.0501 µM (≈ 0.1 µg/mL)

CC[C@H](C)[C@H](NC(=O)[C@H](CCCCN)NC(=O)[C@H](CCCCN)NC(=O)[C@H](C)NC(=O)[C@H](CC(C)C)NC(=O)[C@H](C)NC(=O)[C@H](C)NC(=O)[C@H](CC(C)C)NC(=O)[C@H](C)NC(=O)[C@@H](N)CCCCN)C(=O)N[C@@H](CC(C)C)C(=O)O [KALAALAKKIL]
MIC [31]: 25 µM (≈ 28.5 µg/mL) | MIC [32]: 25 µM (≈ 28.5 µg/mL) | MIC [33]: 25 µM (≈ 28.5 µg/mL)

CC(C)C[C@H](NC(=O)[C@H](CCCCN)NC(=O)[C@H](CC(C)C)NC(=O)[C@H](CCCCN)NC(=O)[C@H](CC(C)C)NC(=O)[C@H](CCCCN)NC(=O)[C@H](CC(C)C)NC(=O)[C@H](CCCCN)NC(=O)[C@H](CC(C)C)NC(=O)[C@H](CCCCN)NC(=O)[C@H](CC(C)C)NC(=O)[C@H](CCCCN)NC(=O)[C@H](CC(C)C)NC(=O)[C@H](CCCCN)NC(=O)[C@H](CC(C)C)NC(=O)[C@H](CCCCN)NC(=O)[C@H](CC(C)C)NC(=O)[C@@H](N)CCCCN)C(N)=O [KLKLKLKLKLKLKLKLKL]
MIC [34]: 14.6 µM (≈ 32 µg/mL) | MIC [35]: 14.6 µM (≈ 32 µg/mL) | MIC [36]: 7.31 µM (≈ 16 µg/mL) | MIC [37]: 3.65 µM (≈ 8 µg/mL)

CSCC[C@H](NC(=O)[C@H](CCCCN)NC(=O)[C@H](Cc1c[nH]c2ccccc12)NC(=O)[C@H](CCCN=C(N)N)NC(=O)[C@H](CCCCN)NC(=O)[C@H](Cc1ccccc1)NC(=O)[C@H](CC(C)C)NC(=O)[C@H](CCCN=C(N)N)NC(=O)[C@H](CCCCN)NC(=O)[C@@H](NC(=O)[C@H](CCCCN)NC(=O)[C@@H](N)CCCN=C(N)N)C(C)C)C(=O)O [RKVKRLFKRWKM]
MIC [38]: ≥ 59.7 µM | MIC [39]: ≥ 59.7 µM | MIC [40]: ≥ 59.7 µM | MIC [41]: 29.8 µM (≈ 50 µg/mL) | MIC [42]: ≥ 477 µM
